# Measurements taken from patent US5998436A, “Pyridonecarboxylic acid derivatives or their salts and antibacterial agent comprising the same as the active ingredient” (Wakunaga Pharmaceuticals Co., Ltd., priority 1995, dated 1999).
# Where a name gives a salt, the structure may show the parent alone. Read-outs that look alike come from different tables or passages of the source.
# How the values were obtained:
# [1] = test system: S. aureus 209P; assay: minimum growth inhibitory concentration (MIC), standard method of Japan Chemotherapy Society; assay type: cell-based; settings: Staphylococcus aureus, read-out: minimum growth inhibitory concentration (MIC)
# Description: (§1) It should be noted that ciprofloxacin, levofloxacin,sparfloxacin and tosufloxacin which are conventional antibacterials were also evaluated for their minimum growth inhibitory concentration (MIC, μg/ml) for the purpose of comparison.
# [2] = test system: S. epidermidis IFO12293; assay: as above; assay type: cell-based; settings: Staphylococcus epidermidis
# Description: as §1
# [3] = test system: P. aeruginosa IFO 3445; assay: as above; assay type: cell-based; settings: Pseudomonas aeruginosa
# Description: as §1
# [4] = test system: Female ICR mice (ears); settings: mouse, in vivo, iv, 40 mg/kg
# Description: The compounds of the Examples 9, 10, 12 and 39 as described above were subjected to phototoxicity test by the procedure as described below.
# Female ICR mice (5 to 6 week old) were intravenously administered with the test compound (40 mg/kg/10 ml), and irradiated with UV (320 to 400 nm, 1.8 mW/cm^2 /sec) for 4 hours. Abnormality in the ears was monitored at 0 hour (immediately after the irradiation) and after 24 and 48 hours. The ear abnormality was evaluated by the following is criteria: no abnormality (0 point), very slight erythema (1 point), well defined erythema (2 points), moderate to severe erythema and edema formation (3 points). Tosufloxacin which is a conventional known antibacterial agent was also tested in a similar way for the purpose of comparison.
# [5] = S. epidermidis IFO12293, read-out: minimum growth inhibitory concentration (MIC)
# [6] = IFO3445, P. aeruginosa IFO 3445, read-out: minimum growth inhibitory concentration (MIC)
"ear abnormality score (0 no abnormality, 1 very slight erythema, 2 well defined erythema, 3 moderate to severe erythema and edema) [4] [point]","ear abnormality, occurrence [4]",MIC ([1]; S. aureus 209P) [µg/mL],"MIC [2, 5] [µg/mL]","MIC [3, 6] [µg/mL]",Structure (SMILES),MIC ([1]; 209P) [µg/mL],"MIC ([2]; IFO12293, read-out: minimum growth inhibitory concentration (MIC)) [µg/mL]","MIC ([3]; IFO3445, read-out: minimum growth inhibitory concentration (MIC)) [µg/mL]"
–,–,–,–,–,"O=C(O)c1cn(C2CC2)c2cc(N3CCNCC3)c(F)cc2c1=O [Ciprofloxacin, ciprofloxacin, reference compound]",0.1,0.39,0.2
0,0/3,< 0.013,0.025,0.05,"Nc1nc(-n2cc(C(=O)O)c(=O)c3cc(F)c(N4CC(N)C4)c(Cl)c32)c(F)cc1F [Ex. 9, 7-(3-aminoazetidin-1-yl)-1-(6-amino-3,5-difluoropyridin-2-yl)-8-chloro-6-fluoro-4-oxo-1,4-dihydroquinoline-3-carboxylic acid]",–,–,–
0,0/3,< 0.013,0.025,0.1,"CNC1CN(c2c(F)cc3c(=O)c(C(=O)O)cn(-c4nc(N)c(F)cc4F)c3c2Cl)C1 [Ex. 10, 1-(6-amino-3,5-difluoropyridin-2-yl)-8-chloro-6-fluoro-7-(3-methylaminoazetidin-1-yl)-4-oxo-1,4-dihydroquinoline-3-carboxylic acid]",–,–,–
0,0/3,< 0.013,< 0.013,0.39,"Nc1nc(-n2cc(C(=O)O)c(=O)c3cc(F)c(N4CC(O)C4)c(Cl)c32)c(F)cc1F [Ex. 12, 3-hydroxyazetidine salt of 1-(6-amino-3,5-difluoropyridin-2-yl)-8-chloro-6-fluoro-7-(3-hydroxyazetidin-1-yl)-4-oxo-1,4-dihydroquinoline-3-carboxylic acid]",–,–,–
0,0/3,< 0.013,0.025,0.05,"Nc1nc(-n2cc(C(=O)O)c(=O)c3cc(F)c(N4CC(N)C4)c(Br)c32)c(F)cc1F [Ex. 39, 7-(3-aminoazetidin-1-yl)-1-(6-amino-3,5-difluoropyridin-2-yl)-8-bromo-6-fluoro-4-oxo-1,4-dihydroquinoline-3-carboxylic acid]",–,–,–
–,–,0.1,0.39,0.39,"C[C@H]1COc2c(N3CCN(C)CC3)c(F)cc3c(=O)c(C(=O)O)cn1c23 [Levofloxacin, levofloxacin, reference compound]",–,–,–
–,–,0.1,0.2,0.78,"C[C@@H]1CN(c2c(F)c(N)c3c(=O)c(C(=O)O)cn(C4CC4)c3c2F)C[C@H](C)N1 [Sparfloxacin, sparfloxacin, reference compound]",–,–,–
–,–,0.05,0.2,0.39,"NC1CCN(c2nc3c(cc2F)c(=O)c(C(=O)O)cn3-c2ccc(F)cc2F)C1 (centres unmarked) [Tosufloxacin, tosufloxacin, reference compound]",–,–,–
